One series concerns trachea. In words: Passive Schultz-Dale reaction (broncho-dilatory effect) on isolated tracheal strips. The conditions noted are these: Cavia porcellus; 50% relaxation of antigen (EWA, 1 µg/ml)-contracted tracheal strips of passively sensitized guinea pigs. As for the experimental part:
Guinea pigs were passively sensitized as follows. Hartley male guinea pigs weighing 350 to 500 g were injected intraperitoneally with rabbit anti-egg albumin (EWA) serum prepared by the method of Koda et al. [Folia pharmacol., Japon 66, 237, (1970)]. After 24 hours, the guinea pigs were stunned and exsanguinated, and then trachea was excised. The zig-zag strips of the trachea were prepared by the method of Emmerson and Mackay [J. Pharm. Pharmacol., 31, 798, (1979)]. The strips were suspended in Krebs-Henseleit solution at 37°C under aeration of a mixed gas of 95% oxygen and 5% carbon dioxide, and incubated for one hour. Antigen (EWA) was then introduced in the solution (final concentration; 1 µg/ml), and the contraction was measured by isotonictransducer (TD-112s, made by Nihon Kohden K.K., Japan) and recorded on a recorder (Type 3066, made by Yokogawa-Hokushin Denki, K.K. Japan). After the contraction curves reached plateau the compounds were successively added in order to get cumulative concentration-relaxation curves. Concentration of 50% relaxation rate (IC50) was calculated from the regression line, which was obtained from cumulative concentration-relaxation curves.

A further series relates to Wistar male rats. In words: Diuretic activity. Type of series: in vivo. The settings on record: Rattus norvegicus, po, 25 mg/kg orally, urine taken for 6 hours. As for the experimental part: Wistar male rats weighing 150 to 300 g were used after fasting for 18 hours. […] The test was performed using 3 groups per test compound, and each group consists of 3 animals. The urine was metered by a measuring cylinder and electrolytes (Na^+ and K^+) in the urine were analyzed by flame photometer (model […]: Hitachi Ltd.). Parameters in Table 3 are represented by relative value for control.

A further series concerns male dd-mice. In words: Acute toxicity. The class given is in vivo. The conditions noted are these: Minimum lethal dose, oral, mortality observed for seven days. The method, then: The compounds were orally administrated to male dd-mice weighing 20 ± 1 g. Minimum lethal dose (MLD) was determined by observing the mortality for seven days after the administration.
The next series relates to male dd mice. In words: Inhibition of platelet activating factor (PAF)-induced mortality. The settings on record: Mus musculus, minimum effective dose, oral, 1 hour before 40 µg/kg PAF i.v., mortality 2 hours after PAF, read-out: PAF-induced mortality MED. Type of series: in vivo. As for the experimental part:
The experiment was performed by a minor modification of method of Carlson et al. [Agents and Actions, 21, 379 (1987)]. Groups each consisting of 10 male dd mice (weighing 28 to 32 g) were used, and 100 mg/kg of test compound or a saline (control) was orally administrated. One hour after the administration of test compound, 40 µg/kg of PAF (manufactured by Avanti Polar Lipids Co., Ltd.) was intravenously administered. Two hours after PAF injection, the mortality rate of the animals was observed. […]

A further series has as its system mice. The series can be described thus: Scopolamine-induced amnesia, step through passive avoidance. Type of series: in vivo. The settings on record: scopolamine 0.5 mg/kg i.p., mean ± S.E.M., controls 40.9±8.1 (Compound 41), 37.0±6.2 (Compound 51). The method, then: Acquisition trial was performed in a manner similar to Experiment (f). Amnestic treatment was performed by intraperitoneal administration of scopolamine (0.5 mg/kg), 30 minutes prior to the acquisition trial. The test trial was performed 24 hours after the acquisition trial and its latency was determined as in Experiment (f).
Preparation of administrated test compound was performed in a manner similar to Experiment (f). Test compound and the saline were orally administered 60 minutes before the acquisition trial, respectively.

The mark [1] stands for this setting: relative value for control (1.00), read-out: Na^+/K^+.
The mark [2] stands for this setting: relative value for control (100), read-out: Excretion of K^+.
The mark [3] stands for this setting: relative value for control (100), read-out: Excretion of Na^+.
[4] abbreviates: relative value for control (100), read-out: Urine volume.

Data on 13 molecules can be found in patent EP0417790B1, “S-triazolo[3,4-i]purine derivatives” (Kyowa Hakko Kogyo Co., Ltd., priority 1989, dated 1991).

In general, IC50 refers to the concentration that gives 50% inhibition.

SMILES strings stand for the structures. Read-outs that look alike come from different tables or passages of the source.

On to `CCCn1c(=O)n2c(-c3ccccc3)nnc2c2c1ncn2C` [Compound 1, 6,9-Dihydro-9-methyl-3-phenyl-6-n-propyl-5H-1,2,4-triazolo-[3,4-i]purin-5-one], for which, in the series with trachea, the IC50 is 4.1 µM. The response vs control in vivo at 25 mg/kg with Wistar male rats (setting [1]) is 318%; in the series with Wistar male rats (setting [2]), 87%; with Wistar male rats (setting [3]), 226%; in the series on Wistar male rats (setting [4]), 255%. The molecule also displayed an MLD with male dd-mice of 100 mg/kg.

Turning to `CCCn1c(=O)n2c(-c3cccs3)nnc2c2c1ncn2C` [Compound 2, 6,9-Dihydro-9-methyl-6-n-propyl-3-(2-thienyl)-5H-1,2,4-triazolo[3,4-i]purin-5-one], the IC50 in the series on trachea is 0.4 µM. Besides, in the series with male dd-mice, the MLD worked out at 300 mg/kg.

Regarding `CCCn1c(=O)n2c(-c3ccco3)nnc2c2c1ncn2C` [Compound 5, 6,9-Dihydro-3-(2-furyl)-9-methyl-6-n-propyl-5H-1,2,4-triazolo[3,4-i]purin-5-one], the IC50 in the series with trachea was determined as 0.7 µM. The minimal effective dose with male dd mice came to 100 mg/kg. The molecule further gave an MLD with male dd-mice greater than 300 mg/kg.

As for `CCCn1c(=O)n2c(-c3ccoc3C)nnc2c2c1ncn2C` [Compound 6, 6,9-Dihydro-9-methyl-3-(2-methyl-3-furyl)-6-n-propyl-5H-1,2,4-triazolo[3,4-i]purin-5-one], the minimal effective dose with male dd mice was 100 mg/kg. Also, the response vs control in vivo at 25 mg/kg amounted to 164% with Wistar male rats (setting [1]), 146% in the series with Wistar male rats (setting [2]), 240% in the series with Wistar male rats (setting [3]) and 223% in the series with Wistar male rats (setting [4]). The molecule also yielded an MLD in the series with male dd-mice of 200 mg/kg.

For the molecule `CCCn1c(=O)n2c(-c3cccc(OC)c3)nnc2c2c1ncn2C` [Compound 8, 6,9-Dihydro-3-(3-methoxyphenyl)-9-methyl-6-n-propyl-5H-1,2,4-triazolo[3,4-i]purin-5-one], the IC50 in the series with trachea came out at 5.6 µM. Besides, the response vs control in vivo at 25 mg/kg with Wistar male rats (setting [1]) came to 144%; with Wistar male rats (setting [2]), 122%; in the series on Wistar male rats (setting [3]) it was 175%; in the series with Wistar male rats (setting [4]), 170%. In the series with male dd-mice, this molecule displayed an MLD greater than 300 mg/kg.

Consider `CCCn1c(=O)n2c(-c3ccc(OC)cc3)nnc2c2c1ncn2C` [Compound 9, 6,9-Dihydro-3-(4-methoxyphenyl)-9-methyl-6-n-propyl-5H-1,2,4-triazolo[3,4-i]purin-5-one], for which, in the series on trachea, the IC50 was 7.8 µM. Moreover, the response vs control in vivo at 25 mg/kg amounted to 157% with Wistar male rats (setting [1]), 139% in the series on Wistar male rats (setting [2]), 219% with Wistar male rats (setting [3]) and 253% in the series on Wistar male rats (setting [4]). Moreover, the MLD in the series on male dd-mice is reported as greater than 300 mg/kg.

Turning to `CCCn1c(=O)n2c(-c3ccccc3Cl)nnc2c2c1ncn2C` [Compound 10, 3-(2-Chlorophenyl)-6,9-dihydro-9-methyl-6-n-propyl-5H-1,2,4-triazolo[3,4-i]purin-5-one], the IC50 in the series with trachea is 18 µM. Besides, the response vs control in vivo at 25 mg/kg is 124% in the series on Wistar male rats (setting [1]), 109% in the series with Wistar male rats (setting [2]), 134% in the series with Wistar male rats (setting [3]) and 162% in the series with Wistar male rats (setting [4]). In the series on male dd-mice, this molecule gave an MLD of 300 mg/kg.

As to `CCCn1c(=O)n2c(-c3cccc(Cl)c3)nnc2c2c1ncn2C` [Compound 11, 3-(3-Chlorophenyl)-6,9-dihydro-9-methyl-6-n-propyl-5H-1,2,4-triazolo[3,4-i]purin-5-one], in the series with trachea, the IC50 is greater than 40 µM. For the same molecule, the minimal effective dose in the series on male dd mice is 100 mg/kg. In addition, the response vs control in vivo at 25 mg/kg in the series with Wistar male rats (setting [1]) worked out at 226%; in the series on Wistar male rats (setting [2]), 134%; in the series with Wistar male rats (setting [3]), 302%; in the series with Wistar male rats (setting [4]) it was 255%. Further, the MLD in the series on male dd-mice is reported as greater than 300 mg/kg.

As for `CCCn1c(=O)n2c(-c3ccc(C)cc3)nnc2c2c1ncn2C` [Compound 14, 6,9-Dihydro-9-methyl-3-(4-methylphenyl)-6-n-propyl-5H-1,2,4-triazolo[3,4-i]purin-5-one], the half-maximal inhibitory concentration (IC50) in the series on trachea came out at 45 µM. This molecule also had an MLD with male dd-mice greater than 300 mg/kg.

In the case of `CCCn1c(=O)n2c(C)nnc2c2c1ncn2C` [Compound 24, 6,9-Dihydro-3,9-dimethyl-6-n-propyl-5H-1,2,4-triazolo-[3,4-i]purin-5-one], the minimal effective dose with male dd mice amounted to 100 mg/kg. In addition, the response vs control in vivo at 25 mg/kg was 123% in the series on Wistar male rats (setting [1]), 168% in the series on Wistar male rats (setting [2]), 148% with Wistar male rats (setting [3]) and 160% in the series with Wistar male rats (setting [4]). The molecule also returned an MLD with male dd-mice of 300 mg/kg.

As for `CCCn1c(=O)n2c(-c3ccccc3)nnc2c2[nH]cnc21` [Compound 30, 6,9-Dihydro-3-phenyl-6-n-propyl-5H-1,2,4-triazolo[3,4-i]purin-5-one], in the series with trachea, the half-maximal inhibitory concentration (IC50) came out at 0.76 µM. The minimal effective dose with male dd mice came to 10 mg/kg. Moreover, the response vs control in vivo at 25 mg/kg with Wistar male rats (setting [1]) stood at 177%; in the series with Wistar male rats (setting [2]), 124%; with Wistar male rats (setting [3]), 220%; in the series with Wistar male rats (setting [4]), 204%. In the series with male dd-mice, the MLD is recorded as 300 mg/kg.

Consider `CCCn1cnc2c1c1n[nH]c(=O)n1c(=O)n2CCC` [Compound 44, 6,9-Di-n-propyl-2,5,6,9-tetrahydro-3H-1,2,4-triazolo[3,4-i]purin-3,5-dione], for which the 50% inhibitory concentration (IC50) in the series on trachea is 39.6 µM. The response vs control in vivo at 25 mg/kg in the series on Wistar male rats (setting [1]) was 111%; in the series with Wistar male rats (setting [2]) it was 128%; in the series on Wistar male rats (setting [3]), 142%; in the series on Wistar male rats (setting [4]), 191%. Besides, the MLD with male dd-mice is greater than 300 mg/kg.

On to `CCCCn1c(=O)n2c(=O)[nH]nc2c2c1ncn2C` [Compound 51, 6-n-Butyl-9-methyl-2,5,6,9-tetrahydro-3H-1,2,4-triazolo[3,4-i]purin-3,5-dione], for which the response vs control in vivo at 25 mg/kg came out at 100% in the series with Wistar male rats (setting [1]), 152% with Wistar male rats (setting [2]), 152% in the series on Wistar male rats (setting [3]) and 200% in the series on Wistar male rats (setting [4]). Moreover, the “Latency of test trial” value in the series with mice (0.625 mg/kg orally 60 minutes before acquisition trial) worked out at 37.0 ± 11.2 s; in the series with mice (2.5 mg/kg orally 60 minutes before acquisition trial) it was 69.5 ± 16.6 s; with mice (10 mg/kg orally 60 minutes before acquisition trial), 139.9 ± 45.1 s; in the series on mice (40 mg/kg orally 60 minutes before acquisition trial), 166.3 ± 49.9 s. In the series with male dd-mice, this molecule displayed an MLD greater than 300 mg/kg.
